Assay results from patent US10194659B2, “Active compound combinations” (BAYER CROPSCIENCE AKTIENGESELLSCHAFT, priority 2014, dated 2019).
“And” between values parts separate entries of the source, which are not always exact repeats. Equal entries are not always repeated.

Tests used:
Alternaria solani = assay: In vivo preventive test on Alternaria test (tomatoes); conditions: evaluated 3 days after inoculation
Description: (§1) To produce a suitable preparation of active compound, 1 part by weight of active compound is mixed with the stated amounts of solvent and emulsifier, and the concentrate is diluted with water to the desired concentration. To test for preventive activity, young plants are sprayed with the preparation of active compound at the stated rate of application. After the spray coating has dried on, the plants are inoculated with an aqueous spore suspension of Alternaria solani. The plants are then placed in an incubation cabinet at approximately 20° C. and a relative atmospheric humidity of 100%.
The test is evaluated 3 days after the inoculation. 0% means an efficacy which corresponds to that of the untreated control while an efficacy of 100% means that no disease is observed.

Botrytis cinerea = assay: In vivo preventive test on Botrytis test (beans); conditions: lesion size evaluated 2 days after inoculation
Description: To produce a suitable preparation of active compound, 1 part by weight of active compound is mixed with the stated amounts of solvent and emulsifier, and the concentrate is diluted with water to the desired concentration. To test for preventive activity, young plants are sprayed with the preparation of active compound. After the spray coating has dried on, 2 small pieces of agar covered with growth of Botrytis cinerea are placed on each leaf. The inoculated plants are placed in a darkened chamber at 20° C. and a relative atmospheric humidity of 100%.
2 days after the inoculation, the size of the lesions on the leaves is evaluated. 0% means an efficacy which corresponds to that of the untreated control, while an efficacy of 100% means that no disease is observed.

Phakopsora pachyrhizi = assay: In vivo preventive test on Phakopsora test (soybeans); conditions: evaluated 7 days after inoculation
Description: as §1, with “the causal agent of soybean rust (Phakopsora pachyrhizi) and stay for 24 h without light” for “Alternaria solani. The plants are then placed”, “24°” for “20°”, “95%. The plants remain in the incubation cabinet at approximately 24° C. and a relative atmospheric humidity of approximately 80% and a day/night interval of 12h.” for “100%.”
(§2) The test is evaluated 7 days after the inoculation. 0% means an efficacy which corresponds to that of the untreated control, while an efficacy of 100% means that no disease is observed.

Venturia inaequalis = assay: In vivo preventive test on Venturia test (apples); conditions: evaluated 10 days after inoculation
Description: as §1, with “conidia” for “spore”, “the causal agent of apple scab (Venturia inaequalis) and” for “Alternaria solani. The plants are”, “remain for 1 day” for “placed”, “100%. The plants are then placed in a greenhouse at approximately 21° C. and a relative atmospheric humidity of approximately 90%.” for “100%.”
The test is evaluated 10 days after the inoculation. 0% means an efficacy which corresponds to that of the untreated control, while an efficacy of 100% means that no disease is observed.

Septoria tritici = assay: In vivo preventive Septoria tritici test (wheat); conditions: evaluated 21 days after inoculation
Description: (§3) To produce a suitable preparation of active compound, 1 part by weight of active compound or active compound combination is mixed with the stated amounts of solvent and emulsifier, and the concentrate is diluted with water to the desired concentration. To test for preventive activity, young plants are sprayed with the preparation of active compound or active compound combination at the stated rate of application. After the spray coating has been dried, the plants are sprayed with a spore suspension of Septoria tritici. The plants remain for 48 hours in an incubation cabinet at approximately 20° C. and a relative atmospheric humidity of approximately 100% and afterwards for 60 hours at approximately 15° C. in a translucent incubation cabinet at a relative atmospheric humidity of approximately 100%. The plants are placed in the greenhouse at a temperature of approximately 15° C. and a relative atmospheric humidity of approximately 80%.
The test is evaluated 21 days after the inoculation. 0% means an efficacy which corresponds to that of the untreated control, while an efficacy of 100% means that no disease is observed.

[1] = tested on: Blumeria graminis f.sp. hordei; assay: In vivo preventive Blumeria test (barley); conditions: evaluated 7 days after inoculation
Description: To produce a suitable preparation of active compound, 1 part by weight of active compound or active compound combination is mixed with the stated amounts of solvent and emulsifier, and the concentrate is diluted with water to the desired concentration. To test for preventive activity, young plants are sprayed with the preparation of active compound or active compound combination at the stated rate of application. After the spray coating has been dried, the plants are dusted with spores of Blumeria graminis f.sp. hordei. The plants are placed in the greenhouse at a temperature of approximately 18° C. and a relative atmospheric humidity of approximately 80% to promote the development of mildew pustules.
as §2

Pyrenophora teres = assay: In vivo preventive Pyrenophora teres test (barley); conditions: evaluated 8 days after inoculation
Description: as §3, with “Pyrenophora teres.” for “Septoria tritici.”, “approximately” for “approximately 100% and afterwards for 60 hours at approximately 15° C. in a translucent incubation cabinet at a relative atmospheric humidity of approximately”, “20°” for “15°”
(§4) The test is evaluated 8 days after the inoculation. 0% means an efficacy which corresponds to that of the untreated control, while an efficacy of 100% means that no disease is observed.

Leptosphaeria nodorum = assay: In vivo preventive Leptosphaeria nodorum test (wheat); conditions: evaluated 8 days after inoculation
Description: as §3, with “Leptosphaeria nodorum.” for “Septoria tritici.”, “approximately” for “approximately 100% and afterwards for 60 hours at approximately 15° C. in a translucent incubation cabinet at a relative atmospheric humidity of approximately”, “25°” for “15°”
as §4

Puccinia triticina = assay: In vivo preventive Puccinia triticina test (wheat); conditions: evaluated 8 days after inoculation
Description: as §3, with “Puccinia triticina.” for “Septoria tritici.”, “approximately” for “approximately 100% and afterwards for 60 hours at approximately 15° C. in a translucent incubation cabinet at a relative atmospheric humidity of approximately”, “20°” for “15°”
as §4

Row | Compound | Efficacy in % found (Alternaria solani; 0.25 ppm a.i.) | Efficacy in % found (Alternaria solani; 0.5 ppm a.i.) [%] | Efficacy in % found (Alternaria solani; 1 ppm a.i.) | Efficacy in % found (Botrytis cinerea; 1 ppm a.i.) | Efficacy in % found (Phakopsora pachyrhizi; 0.25 ppm a.i.) | Efficacy in % found (Phakopsora pachyrhizi; 0.5 ppm a.i.) [%] | Efficacy in % found (Phakopsora pachyrhizi; 1 ppm a.i.) [%] | Efficacy in % found (Venturia inaequalis; 0.5 ppm a.i.) | Efficacy in % found (Botrytis cinerea; 0.25 ppm a.i.) [%] | Efficacy in % found (Botrytis cinerea; 0.5 ppm a.i.) [%] | Efficacy in % found (Pyrenophora teres; 25 ppm a.i.) [%] | Efficacy in % found (Pyrenophora teres; 50 ppm a.i.) [%] | Efficacy in % found (Venturia inaequalis; 1 ppm a.i.) [%] | also measured
1 | Cn1cc(C(=O)Nc2ccccc2-c2cc(F)c(F)c(F)c2)c(C(F)F)n1 [1.008, fluxapyroxad, reference compound] | 15% and 8% | 45 | 55% and 78% | 8% and 0% | 9% and 0% | 0 | 0 | 8% and 10% |  |  |  |  |  | 
2 | CC1CC(C)(C)c2cccc(NC(=O)c3cn(C)nc3C(F)F)c21 (centres unmarked) [1.032, 3-(difluoromethyl)-1-methyl-N-(1,1,3-trimethyl-2,3-dihydro-1H-inden-4-yl)-1H-pyrazole-4-carboxamide, reference compound] |  | 0 | 15% and 8% |  | 0% | 0 | 0 | 0% | 18 | 0 |  |  |  | 
3 | CCC1CC(C)(C)c2cccc(NC(=O)c3cccnc3C(F)F)c21 (centres unmarked) [(I-3), 2-(difluoromethyl)-N-(3-ethyl-1,1-dimethyl-2,3-dihydro-1H-inden-4-yl)nicotinamide] | 15% | 45 | 45% | 0% | 24% | 71 |  | 11% | 0 | 4 | 13 | 38 |  | Efficacy in % found (Septoria tritici; 25 ppm a.i.): 17%; Efficacy in % found (Septoria tritici; 50 ppm a.i.): 83%; Efficacy in % found ([1]; 50 ppm a.i.): 29%; Efficacy in % found ([1]; 100 ppm a.i.): 57%; Efficacy in % found (Pyrenophora teres; 100 ppm a.i.): 50%
4 | CC[C@@H]1CC(C)(C)c2cccc(NC(=O)c3cccnc3C(F)F)c21 [(I-4), 2-(difluoromethyl)-N-[(3R)-3-ethyl-1,1-dimethyl-2,3-dihydro-1H-inden-4-yl]nicotinamide] | 23% | 30 | 55% |  | 35% |  | 87 | 12% |  |  | 22 | 33 | 21 | Efficacy in % found (Leptosphaeria nodorum; 25 ppm a.i.): 0%; Efficacy in % found ([1]; 25 ppm a.i.): 0%; Efficacy in % found (Puccinia triticina; 12.5 ppm a.i.): 80%; Efficacy in % found (Pyrenophora teres; 12.5 ppm a.i.): 22%
5 | CCCC1CC(C)(C)c2cccc(NC(=O)c3cccnc3C(F)F)c21 (centres unmarked) [(I-5), 2-(difluoromethyl)-N-(1,1-dimethyl-3-propyl-2,3-dihydro-1H-inden-4-yl)nicotinamide] | 0% | 8 | 15% | 0% | 78% | 84 | 85 | 0% |  |  | 0 | 0 | 15 | Efficacy in % found (Puccinia triticina; 25 ppm a.i.): 50%; Efficacy in % found (Pyrenophora teres; 100 ppm a.i.): 50%; Efficacy in % found (Venturia inaequalis; 0.25 ppm a.i.): 0%
6 | CCC[C@@H]1CC(C)(C)c2cccc(NC(=O)c3cccnc3C(F)F)c21 [(I-6), 2-(difluoromethyl)-N-[(3R)-1,1-dimethyl-3-propyl-2,3-dihydro-1H-inden-4-yl]nicotinamide] | 15% | 23 | 45% |  |  | 92 |  | 5% | 0 | 0 |  |  | 10 | Efficacy in % found ([1]; 50 ppm a.i.): 40%; Efficacy in % found (Puccinia triticina; 25 ppm a.i.): 90%; Efficacy in % found (Venturia inaequalis; 0.25 ppm a.i.): 0%
7 | fluopyram [1.006, reference compound] |  |  |  |  |  |  |  |  |  |  |  | 75 |  | Efficacy in % found (Septoria tritici; 25 ppm a.i.): 17%; Efficacy in % found (Leptosphaeria nodorum; 12.5 ppm a.i.): 14%; Efficacy in % found (Leptosphaeria nodorum; 25 ppm a.i.): 14%; Efficacy in % found ([1]; 100 ppm a.i.): 71%; Efficacy in % found (Puccinia triticina; 12.5 ppm a.i.): 0%; Efficacy in % found (Pyrenophora teres; 12.5 ppm a.i.): 33%
